From publication PMC5218480 (PLoS ONE, 2017) come the findings set out here.

The subject of the experiment is MV-4-11 cells. In words: Gene expression microarray analysis (Affymetrix PrimeView) and GSEA. Format: cell-based, human. Set-up: RFU PODN (11730768_x_at) / Fold change /veh PODN (11730768_x_at) / RFU LINC00158 (11744669_a_at) / Fold change /veh LINC00158 (11744669_a_at) / RFU DUSP10 (11751237_a_at) / Fold change /veh DUSP10 (11751237_a_at) / RFU ID3 (11757404_x_at) / Fold change /veh ID3 (11757404_x_at) / RFU PLEKHG5 (11737974_s_at) / Fold change /veh PLEKHG5 (11737974_s_at) / RFU LRRC4B (11730491_at) / Fold change /veh LRRC4B (11730491_at) / RFU GIMAP4 (11747438_a_at) / Fold change /veh GIMAP4 (11747438_a_at) / RFU KRT8 (11758183_x_at) / Fold change /veh KRT8 (11758183_x_at) / RFU CNN1 (11734310_a_at) / Fold change /veh CNN1 (11734310_a_at) / RFU VPS37D (11726825_at) / Fold change /veh VPS37D (11726825_at) / RFU C10orf10 (11716522_x_at) / Fold change /veh C10orf10 (11716522_x_at) / RFU KIR2DL2 /// KIR2DL4 /// KIR2DL5A /// KIR2DL5B /// KIR2DS1 /// KIR2DS2 /// KIR2DS3 /// KIR2DS4 /// KIR3DL3 /// KIR3DL3 /// KIR3DS1 (11738374_at) / Fold change /veh KIR2DL2 /// KIR2DL4 /// KIR2DL5A /// KIR2DL5B /// KIR2DS1 /// KIR2DS2 /// KIR2DS3 /// KIR2DS4 /// KIR3DL3 /// KIR3DL3 /// KIR3DS1 (11738374_at) / RFU C1QL1 (11718748_at) / Fold change /veh C1QL1 (11718748_at) / RFU TMPRSS4 (11747572_a_at) / Fold change /veh TMPRSS4 (11747572_a_at) / RFU HAMP (11756126_x_at) / Fold change /veh HAMP (11756126_x_at) / RFU RNFT2 (11725882_a_at) / Fold change /veh RNFT2 (11725882_a_at) / RFU NR4A2 (11747474_a_at) / Fold change /veh NR4A2 (11747474_a_at) / RFU ABCC12 (11746883_a_at) / Fold change /veh ABCC12 (11746883_a_at) / RFU TMEM136 (11760407_x_at) / Fold change /veh TMEM136 (11760407_x_at) / RFU CLDN22 /// WWC2 (11732394_at) / Fold change /veh CLDN22 /// WWC2 (11732394_at) / RFU HLA-DPB1 (11760878_x_at) / Fold change /veh HLA-DPB1 (11760878_x_at) / RFU SPINT1 (11716480_a_at) / Fold change /veh SPINT1 (11716480_a_at) / RFU GAP43 (11754022_s_at) / Fold change /veh GAP43 (11754022_s_at) / RFU A4GNT (11735810_at) / Fold change /veh A4GNT (11735810_at) / RFU PRB3 (11715151_x_at) / Fold change /veh PRB3 (11715151_x_at) / RFU TUBB4B (11761932_at) / Fold change /veh TUBB4B (11761932_at) / RFU CAPN14 (11732068_a_at) / Fold change /veh CAPN14 (11732068_a_at) / RFU TMCC2 (11721928_a_at) / Fold change /veh TMCC2 (11721928_a_at) / RFU IRGQ (11745062_a_at) / Fold change /veh IRGQ (11745062_a_at) / RFU FAM174B (11720279_a_at) / Fold change /veh FAM174B (11720279_a_at) / RFU TMPRSS4 (11748680_a_at) / Fold change /veh TMPRSS4 (11748680_a_at) / RFU FAM212B (11763350_a_at) / Fold change /veh FAM212B (11763350_a_at) / RFU PLEKHG5 (11743358_a_at) / Fold change /veh PLEKHG5 (11743358_a_at) / RFU ZSCAN30 (11745921_a_at) / Fold change /veh ZSCAN30 (11745921_a_at) / RFU CMKLR1 (11741424_a_at) / Fold change /veh CMKLR1 (11741424_a_at) / RFU LOC101060620 /// MAPK8IP1 (11723275_at) / Fold change /veh LOC101060620 /// MAPK8IP1 (11723275_at) / RFU SPTSSB (11747773_x_at) / Fold change /veh SPTSSB (11747773_x_at) / RFU PRSS12 (11739890_at) / Fold change /veh PRSS12 (11739890_at) / RFU BIN1 (11741810_x_at) / Fold change /veh BIN1 (11741810_x_at) / RFU WNT11 (11732464_a_at) / Fold change /veh WNT11 (11732464_a_at) / RFU C10orf10 (11716521_a_at) / Fold change /veh C10orf10 (11716521_a_at) / RFU C5orf56 (11738089_at) / Fold change /veh C5orf56 (11738089_at) / RFU CYB561 (11721691_x_at) / Fold change /veh CYB561 (11721691_x_at) / RFU ANKRD19P (11752326_a_at) / Fold change /veh ANKRD19P (11752326_a_at) / RFU OR2T12 /// OR2T33 /// OR2T8 (11738714_s_at) / Fold change /veh OR2T12 /// OR2T33 /// OR2T8 (11738714_s_at) / RFU VCAN (11748164_a_at) / Fold change /veh VCAN (11748164_a_at) / RFU JSRP1 (11732532_at) / Fold change /veh JSRP1 (11732532_at) / RFU KRTAP10-11 (11738290_x_at) / Fold change /veh KRTAP10-11 (11738290_x_at) / RFU MYO3A (11730013_a_at) / Fold change /veh MYO3A (11730013_a_at) / RFU EBF3 (11725865_a_at) / Fold change /veh EBF3 (11725865_a_at) / RFU CAMK2N1 (11719241_x_at) / Fold change /veh CAMK2N1 (11719241_x_at) / RFU C5orf56 (11738088_a_at) / Fold change /veh C5orf56 (11738088_a_at) / RFU OLFML3 (11715873_a_at) / Fold change /veh OLFML3 (11715873_a_at) / RFU LOC100653217 /// NTM (11731650_a_at) / Fold change /veh LOC100653217 /// NTM (11731650_a_at) / RFU MAPK11 (11762145_a_at) / Fold change /veh MAPK11 (11762145_a_at) / RFU FIZ1 (11724087_x_at) / Fold change /veh FIZ1 (11724087_x_at) / RFU OASL (11726364_x_at) / Fold change /veh OASL (11726364_x_at) / RFU SOX15 (11748057_x_at) / Fold change /veh SOX15 (11748057_x_at) / RFU CD79A (11719716_a_at) / Fold change /veh CD79A (11719716_a_at) / RFU HIST1H1D (11736915_at) / Fold change /veh HIST1H1D (11736915_at) / RFU CASKIN2 (11723855_a_at) / Fold change /veh CASKIN2 (11723855_a_at) / RFU LOC730098 (11760151_x_at) / Fold change /veh LOC730098 (11760151_x_at) / RFU OR4N2 (11742367_at) / Fold change /veh OR4N2 (11742367_at) / RFU PRRT2 (11749266_a_at) / Fold change /veh PRRT2 (11749266_a_at) / RFU SNX32 (11753110_a_at) / Fold change /veh SNX32 (11753110_a_at) / RFU CDHR5 (11726645_a_at) / Fold change /veh CDHR5 (11726645_a_at) / RFU RCAN1 (11760418_a_at) / Fold change /veh RCAN1 (11760418_a_at) / RFU FAM167A (11723789_a_at) / Fold change /veh FAM167A (11723789_a_at) / RFU FAM26E (11764081_at) / Fold change /veh FAM26E (11764081_at) / RFU ISYNA1 (11749810_s_at) / Fold change /veh ISYNA1 (11749810_s_at) / RFU ACY1 (11761880_at) / Fold change /veh ACY1 (11761880_at) / RFU 11764098_at / Fold change /veh 11764098_at / RFU SAMD14 (11745864_x_at) / Fold change /veh SAMD14 (11745864_x_at) / RFU NPB (11741838_a_at) / Fold change /veh NPB (11741838_a_at) / RFU TMPRSS6 (11731388_a_at) / Fold change /veh TMPRSS6 (11731388_a_at) / RFU KRTAP10-2 (11738614_at) / Fold change /veh KRTAP10-2 (11738614_at) / RFU ARHGAP8 /// PRR5-ARHGAP8 (11727945_x_at) / Fold change /veh ARHGAP8 /// PRR5-ARHGAP8 (11727945_x_at) / RFU KRTAP5-7 /// NADSYN1 (11734609_at) / Fold change /veh KRTAP5-7 /// NADSYN1 (11734609_at) / RFU RASL12 (11751679_a_at) / Fold change /veh RASL12 (11751679_a_at) / RFU CDKN2B (11736163_a_at) / Fold change /veh CDKN2B (11736163_a_at) / RFU PRF1 (11729649_at) / Fold change /veh PRF1 (11729649_at) / RFU, ZNF638 /// ZNF638-IT1 / Fold change vs veh, ZNF638 /// ZNF638-IT1 / RFU, PANK3 / Fold change vs veh, PANK3 / RFU, SH3YL1 / Fold change vs veh, SH3YL1 / RFU, ZEB2 / Fold change vs veh, ZEB2 / RFU, NRIP1 / Fold change vs veh, NRIP1 / RFU, PTTG1IP / Fold change vs veh, PTTG1IP / RFU, CAPN2 / Fold change vs veh, CAPN2 / RFU, MED14 / Fold change vs veh, MED14 / RFU, SNORA58 / Fold change vs veh, SNORA58 / RFU, C1orf63 / Fold change vs veh, C1orf63 / RFU, LRRFIP1 / Fold change vs veh, LRRFIP1 / RFU, NDUFAF7 / Fold change vs veh, NDUFAF7 / RFU, SLC12A2 / Fold change vs veh, SLC12A2 / RFU, IBTK / Fold change vs veh, IBTK / RFU, ESF1 / Fold change vs veh, ESF1 / Fold change vs veh, TMEM50B / RFU, TAOK1 / Fold change vs veh, TAOK1 / RFU, ACBD3 / Fold change vs veh, ACBD3 / RFU, TMA16 / Fold change vs veh, TMA16 / RFU, RWDD3 / Fold change vs veh, RWDD3 / RFU, BCAT1 / Fold change vs veh, BCAT1 / RFU, EDEM3 / Fold change vs veh, EDEM3 / RFU, TMEM33 / Fold change vs veh, TMEM33 / RFU, WDR75 / Fold change vs veh, WDR75 / RFU, AHCTF1 / Fold change vs veh, AHCTF1 / RFU, TFRC / Fold change vs veh, TFRC / RFU, ZDHHC17 / Fold change vs veh, ZDHHC17 / RFU, NOM1 / Fold change vs veh, NOM1 / RFU, ARL8B / Fold change vs veh, ARL8B / RFU, ZBTB11 / Fold change vs veh, ZBTB11 / RFU, TAMM41 / Fold change vs veh, TAMM41 / RFU, KIAA1704 /// LOC100996395 / Fold change vs veh, KIAA1704 /// LOC100996395 / RFU, ING1 / Fold change vs veh, ING1 / RFU, TRMT61B / Fold change vs veh, TRMT61B / RFU, FUBP3 / Fold change vs veh, FUBP3 / RFU, TP53 / Fold change vs veh, TP53 / RFU, TNKS2 / Fold change vs veh, TNKS2 / RFU, ZFP14 / Fold change vs veh, ZFP14 / RFU, ACTR2 / Fold change vs veh, ACTR2 / RFU, PPP3R1 / Fold change vs veh, PPP3R1 / RFU, PIK3R1 / Fold change vs veh, PIK3R1 / RFU, HNRNPA1 / Fold change vs veh, HNRNPA1 / RFU, RNF170 / Fold change vs veh, RNF170 / RFU, ZNF28 / Fold change vs veh, ZNF28 / RFU, RNGTT / Fold change vs veh, RNGTT / RFU, OGT / Fold change vs veh, OGT / RFU, BRD1 / Fold change vs veh, BRD1 / RFU, MARS / Fold change vs veh, MARS / RFU, ZNF655 / Fold change vs veh, ZNF655 / RFU, FAHD1 / Fold change vs veh, FAHD1 / RFU, BDP1 / Fold change vs veh, BDP1 / RFU, LRRCC1 / Fold change vs veh, LRRCC1 / RFU, ARID1A / Fold change vs veh, ARID1A / RFU, ZNF146 / Fold change vs veh, ZNF146 / RFU, ZNF330 / Fold change vs veh, ZNF330 / RFU, GPN3 / Fold change vs veh, GPN3 / RFU, C9orf123 / Fold change vs veh, C9orf123 / RFU, N4BP2L2 / Fold change vs veh, N4BP2L2 / RFU, ARFIP1 / Fold change vs veh, ARFIP1 / RFU, FAM179B / Fold change vs veh, FAM179B / RFU, BCL10 / Fold change vs veh, BCL10 / RFU, UHRF1BP1L / Fold change vs veh, UHRF1BP1L / RFU, BET1 / Fold change vs veh, BET1 / RFU, CNOT2 / Fold change vs veh, CNOT2 / RFU, ZNF268 / Fold change vs veh, ZNF268 / Fold change vs veh, ZNF507 / RFU, DGCR2 / Fold change vs veh, DGCR2 / RFU, WDSUB1 / Fold change vs veh, WDSUB1 / Fold change vs veh, HSP90B1 /// MIR3652 / RFU, ADSS / Fold change vs veh, ADSS / RFU, GK / Fold change vs veh, GK / RFU, ZNF148 / Fold change vs veh, ZNF148 / RFU, TAF9 / Fold change vs veh, TAF9 / RFU, SLC1A5 / Fold change vs veh, SLC1A5 / RFU, SLMO2 / Fold change vs veh, SLMO2 / RFU, ABCC4 / Fold change vs veh, ABCC4 / RFU, LOC101060439 /// RAP1B / Fold change vs veh, LOC101060439 /// RAP1B / RFU, RFX7 / Fold change vs veh, RFX7 / RFU, GTPBP10 / Fold change vs veh, GTPBP10 / RFU, CNEP1R1 / Fold change vs veh, CNEP1R1 / RFU, BIVM-ERCC5 /// ERCC5 / Fold change vs veh, BIVM-ERCC5 /// ERCC5 / RFU, ILF3 / Fold change vs veh, ILF3 / RFU 11762660_at / Fold change /veh 11762660_at / RFU VCAN (11757783_s_at) / Fold change /veh VCAN (11757783_s_at) / RFU DDX43 (11728927_at) / Fold change /veh DDX43 (11728927_at) / RFU KRT8 (11758188_x_at) / Fold change /veh KRT8 (11758188_x_at) / RFU NKD1 (11759106_at) / Fold change /veh NKD1 (11759106_at) / RFU SRD5A1 (11742802_a_at) / Fold change /veh SRD5A1 (11742802_a_at) / RFU TPSAB1 /// TPSB2 (11721975_s_at) / Fold change /veh TPSAB1 /// TPSB2 (11721975_s_at) / RFU GSTM3 (11746129_a_at) / Fold change /veh GSTM3 (11746129_a_at) / RFU IL23R (11737362_x_at) / Fold change /veh IL23R (11737362_x_at) / RFU TMEM51 (11727254_a_at) / Fold change /veh TMEM51 (11727254_a_at) / RFU PIWIL2 (11732686_x_at) / Fold change /veh PIWIL2 (11732686_x_at) / RFU ORM1 (11744905_x_at) / Fold change /veh ORM1 (11744905_x_at) / RFU CCDC152 (11743942_at) / Fold change /veh CCDC152 (11743942_at) / RFU ECM1 (11717891_a_at) / Fold change /veh ECM1 (11717891_a_at) / RFU IL23R (11748794_a_at) / Fold change /veh IL23R (11748794_a_at) / RFU TNFAIP8L3 (11732012_x_at) / Fold change /veh TNFAIP8L3 (11732012_x_at) / RFU MBOAT4 (11741988_at) / Fold change /veh MBOAT4 (11741988_at) / RFU 11764193_at / Fold change /veh 11764193_at / RFU TMEM53 (11763286_at) / Fold change /veh TMEM53 (11763286_at) / RFU MAGEB2 (11727129_at) / Fold change /veh MAGEB2 (11727129_at) / RFU TMEM200A (11744735_a_at) / Fold change /veh TMEM200A (11744735_a_at) / RFU CCDC152 (11751479_a_at) / Fold change /veh CCDC152 (11751479_a_at) / RFU FAM211A (11726209_a_at) / Fold change /veh FAM211A (11726209_a_at) / RFU RGS16 (11746705_a_at) / Fold change /veh RGS16 (11746705_a_at) / RFU VCAN (11755009_s_at) / Fold change /veh VCAN (11755009_s_at) / RFU RHOB (11743442_s_at) / Fold change /veh RHOB (11743442_s_at) / RFU RGS16 (11720943_a_at) / Fold change /veh RGS16 (11720943_a_at) / RFU RGS16 (11720944_at) / Fold change /veh RGS16 (11720944_at) / RFU, VPS4B / Fold change vs veh, VPS4B / RFU, CREB1 / Fold change vs veh, CREB1 / RFU, DNAJC13 / Fold change vs veh, DNAJC13 / RFU, GNAQ / Fold change vs veh, GNAQ / RFU, CDK5R1 / Fold change vs veh, CDK5R1 / RFU, ZRANB3 / Fold change vs veh, ZRANB3 / RFU, CUL4A / Fold change vs veh, CUL4A / RFU, CCNY / Fold change vs veh, CCNY / RFU, UFL1 / Fold change vs veh, UFL1 / RFU, COG3 / Fold change vs veh, COG3 / RFU, DIAPH2 / Fold change vs veh, DIAPH2 / RFU, SKA2 / Fold change vs veh, SKA2 / RFU, AFF3 / Fold change vs veh, AFF3 / RFU, LMF1 / Fold change vs veh, LMF1 / RFU, IPO11 / Fold change vs veh, IPO11 / RFU, DFFB / Fold change vs veh, DFFB / RFU, FOXP1 / Fold change vs veh, FOXP1 / RFU, CARD8 / Fold change vs veh, CARD8 / RFU, STRN3 / Fold change vs veh, STRN3 / RFU, ADK / Fold change vs veh, ADK / RFU, RASSF2 / Fold change vs veh, RASSF2 / RFU, WIPF1 / Fold change vs veh, WIPF1 / RFU, LARP1B / Fold change vs veh, LARP1B / RFU, RASA1 / Fold change vs veh, RASA1 / RFU, RB1 / Fold change vs veh, RB1 / RFU, PPFIA1 / Fold change vs veh, PPFIA1 / RFU, MAT2A / Fold change vs veh, MAT2A / RFU, CCT5 / Fold change vs veh, CCT5 / RFU, WDR92 / Fold change vs veh, WDR92 / RFU, CUX1 / Fold change vs veh, CUX1 / RFU, TTC7A / Fold change vs veh, TTC7A / RFU, TMEM135 / Fold change vs veh, TMEM135 / RFU, DEPTOR / Fold change vs veh, DEPTOR / RFU, CPM / Fold change vs veh, CPM / RFU, DNAJB6 / Fold change vs veh, DNAJB6 / RFU, CACNA2D3 / Fold change vs veh, CACNA2D3 / RFU, DTX4 / Fold change vs veh, DTX4 / RFU, TFCP2 / Fold change vs veh, TFCP2 / RFU, GMCL1 /// GMCL1P1 / Fold change vs veh, GMCL1 /// GMCL1P1 / RFU, AEBP2 / Fold change vs veh, AEBP2 / RFU, SNHG1 /// SNORD22 /// SNORD25 /// SNORD26 /// SNORD27 /// SNORD28 /// SNORD29 /// SNORD31 / Fold change vs veh, SNHG1 /// SNORD22 /// SNORD25 /// SNORD26 /// SNORD27 /// SNORD28 /// SNORD29 /// SNORD31 / Fold change (Aza/veh), C12orf56 (ProbeSet 11735607_a_at) / Fold change (ACY-1035/veh), C12orf56 (ProbeSet 11735607_a_at) / Fold change (Aza/veh), FGFR1OP (ProbeSet 11751329_s_at) / Fold change (ACY-1035/veh), FGFR1OP (ProbeSet 11751329_s_at) / Fold change (Aza/veh), VPS36 (ProbeSet 11739960_a_at) / Fold change (ACY-1035/veh), VPS36 (ProbeSet 11739960_a_at) / RFU SYPL1 (11715823_x_at) / Fold change /veh SYPL1 (11715823_x_at) / RFU IGFBP7 (11715501_s_at) / Fold change /veh IGFBP7 (11715501_s_at) / RFU REEP3 (11722064_at) / Fold change /veh REEP3 (11722064_at) / RFU IGLL1 (11728026_x_at) / Fold change /veh IGLL1 (11728026_x_at): dose or concentration left out as unconfirmed. The note with it: ProbeSet 11763166_a_at; LIST B.

As to `Nc1ccc(-c2cccs2)cc1NC(=O)c1ccc2c(c1)cc(C1CC1)n2CCN1CCOCC1` [ACY-1035], the “RFU, MARS” value was 48.43 RFU.
